Experimental data: patent publication US9273058B2 (BRISTOL-MYERS SQUIBB COMPANY, priority 2013, dated 2016)

Experiments:
CK1δ = CK1δ (Homo sapiens, UniProt P48730); assay: CK1δ kinase assay (Caliper LabChip electrophoretic separation of fluoresceinated peptide substrate and product); assay type: biochemical; conditions: 200 pM CK1δ, 50 μM ATP, 1.5 μM peptide, 22 hours at room temperature; read-out: CK1δ IC50 range
How it was run: (§1)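 Compounds, taken from 10 mM DMSO stocks, are titrated at eleven concentrations. Kinase reactions proceed for 22 hours at room temperature and are quenched with EDTA. Substrate and product are resolved electrophoretically, and IC50 values are fitted by non-linear regression.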

CK1ε = CK1ε (Homo sapiens, UniProt P49674); assay: CK1ε kinase assay (Caliper LabChip electrophoretic separation of fluoresceinated peptide substrate and product); assay type: biochemical; conditions: 200 pM CK1ε, 50 μM ATP, 1.5 μM peptide, 22 hours at room temperature; read-out: CK1ε IC50 range
How it was run: as §1

CK1δ, sequence (P48730 whole entry): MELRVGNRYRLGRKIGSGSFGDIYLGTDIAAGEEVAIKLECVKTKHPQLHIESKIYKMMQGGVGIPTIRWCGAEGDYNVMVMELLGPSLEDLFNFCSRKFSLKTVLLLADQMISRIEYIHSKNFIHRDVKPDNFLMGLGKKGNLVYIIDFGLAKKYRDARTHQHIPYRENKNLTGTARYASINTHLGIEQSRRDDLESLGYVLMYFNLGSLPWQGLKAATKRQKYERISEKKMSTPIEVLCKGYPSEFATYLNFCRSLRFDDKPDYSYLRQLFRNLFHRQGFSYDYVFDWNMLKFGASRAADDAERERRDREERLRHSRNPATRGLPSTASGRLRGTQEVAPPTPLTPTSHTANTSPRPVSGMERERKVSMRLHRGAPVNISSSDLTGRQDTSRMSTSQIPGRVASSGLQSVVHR
CK1ε, sequence (P49674 whole entry): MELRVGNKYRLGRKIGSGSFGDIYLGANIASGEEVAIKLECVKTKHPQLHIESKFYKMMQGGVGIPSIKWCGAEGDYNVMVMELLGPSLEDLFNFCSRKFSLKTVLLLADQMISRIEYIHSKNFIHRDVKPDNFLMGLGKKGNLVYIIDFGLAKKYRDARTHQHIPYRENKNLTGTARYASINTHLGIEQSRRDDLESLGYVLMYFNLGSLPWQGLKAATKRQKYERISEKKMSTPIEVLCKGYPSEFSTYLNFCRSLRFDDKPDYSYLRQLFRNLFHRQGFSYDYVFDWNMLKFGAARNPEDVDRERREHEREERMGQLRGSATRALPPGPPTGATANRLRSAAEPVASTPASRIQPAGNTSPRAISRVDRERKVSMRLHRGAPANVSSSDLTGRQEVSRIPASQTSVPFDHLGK

NC(=O)c1c(-c2ccc(F)c(Cl)c2)nn2c1CN(C(=O)NC1CC3(CC3)C1)CC2 [Compound 195, 2-(3-Chloro-4-fluorophenyl)-N^5-(spiro [2.3]hexan-5-yl)-6,7-dihydropyrazolo[1,5-a] pyrazine-3,5(4H)-dicarboxamide]
IC50 (CK1δ): 0.01 to 10 nM
IC50 (CK1ε): 0.01 to 10 nM

NC(=O)c1c(-c2ccc(F)c(Cl)c2)nn2c1CN(C(=O)NC1CC3(C1)CC(F)(F)C3)CC2 [Compound 196, 2-(3-Chloro-4-fluorophenyl)-N^5-(6,6-difluorospiro[3.3]heptan-2-yl)-6,7-dihydropyrazolo[1,5-a] pyrazine-3,5(4H)-dicarboxamide]
IC50 (CK1δ): 0.01 to 10 nM
IC50 (CK1ε): 0.01 to 10 nM

CC(C)(NC(=O)N1CCn2nc(-c3ccc(Cl)c(Cl)c3)c(C(N)=O)c2C1)C(F)F [Compound 199, 2-(3,4-Dichlorophenyl)-N^5-(1,1-difluoro-2-methylpropan-2-yl)-6,7-dihydropyrazolo[1,5-a]pyrazine-3,5(4H)-dicarboxamide]
IC50 (CK1δ): 0.01 to 10 nM
IC50 (CK1ε): 0.01 to 10 nM

CC(C)(NC(=O)N1CCn2nc(-c3ccc(Cl)c(Cl)c3)c(C(N)=O)c2C1)c1ccc(C#N)cc1 [Compound 200, N^5-(2-(4-Cyanophenyl)propan-2-yl)-2-(3,4-dichlorophenyl)-6,7-dihydropyrazolo[1,5-a] pyrazine-3,5(4H)-dicarboxamide]
IC50 (CK1δ): 0.01 to 10 nM
IC50 (CK1ε): 0.01 to 10 nM

NC(=O)c1c(-c2ccc(Cl)c(Cl)c2)nn2c1CN(C(=O)N[C@H]1C[C@H](F)C1)CC2 [Compound 202, 2-(3,4-Dichlorophenyl)-N^5-((1r,3r)-3-fluorocyclobutyl)-6,7-dihydropyrazolo[1,5-a] pyrazine-3,5(4H)-dicarboxamide]
IC50 (CK1δ): 0.01 to 10 nM
IC50 (CK1ε): 0.01 to 10 nM

NC(=O)c1c(-c2ccc(Cl)c(Cl)c2)nn2c1CN(C(=O)N[C@H]1C[C@@H](F)C1)CC2 [Compound 203, 2-(3,4-Dichlorophenyl)-N^5-((1s,3s)-3-fluorocyclobutyl)-6,7-dihydropyrazolo[1,5-a] pyrazine-3,5(4H)-dicarboxamide]
IC50 (CK1δ): 0.01 to 10 nM
IC50 (CK1ε): 0.01 to 10 nM

CO[C@H]1C[C@H](NC(=O)N2CCn3nc(-c4ccc(Cl)c(Cl)c4)c(C(N)=O)c3C2)C1 [Compound 204, 2-(3,4-Dichlorophenyl)-N^5-((1r,3r)-3-methoxycyclobutyl)-6,7-dihydropyrazolo[1,5-a] pyrazine-3,5(4H)-dicarboxamide]
IC50 (CK1δ): 0.01 to 10 nM
IC50 (CK1ε): 0.01 to 10 nM

NC(=O)c1c(-c2ccc(Cl)c(Cl)c2)nn2c1CN(C(=O)NCC1CC(F)(F)C1)CC2 [Compound 205, 2-(3,4-Dichlorophenyl)-N^5-((3,3-difluorocyclobutyl)methyl)-6,7-dihydropyrazolo[1,5-a] pyrazine-3,5(4H)-dicarboxamide]
IC50 (CK1δ): 0.01 to 10 nM
IC50 (CK1ε): 0.01 to 10 nM

NC(=O)c1c(-c2ccc(Cl)c(Cl)c2)nn2c1CN(C(=O)NCC1CCC(F)(F)CC1)CC2 [Compound 206, 2-(3,4-Dichlorophenyl)-N^5-((4,4-difluorocyclohexyl)methyl)-6,7-dihydropyrazolo[1,5-a] pyrazine-3,5(4H)-dicarboxamide]
IC50 (CK1δ): 0.01 to 10 nM
IC50 (CK1ε): 0.01 to 10 nM

NC(=O)c1c(-c2ccc(Cl)c(Cl)c2)nn2c1CN(C(=O)NC1CC3(C1)CC(F)(F)C3)CC2 [Compound 208, 2-(3,4-Dichlorophenyl)-N^5-(6,6-difluorospiro [3.3]heptan-2-yl)-6,7-dihydropyrazolo[1,5-a] pyrazine-3,5(4H)-dicarboxamide]
IC50 (CK1δ): 0.01 to 10 nM
IC50 (CK1ε): 0.01 to 10 nM

CC(CF)(CF)NC(=O)N1CCn2nc(-c3ccc(F)c(Cl)c3)c(C(N)=O)c2C1 [Compound 209, 2-(3-Chloro-4-fluorophenyl)-N^5-(1,3-difluoro-2-methylpropan-2-yl)-6,7-dihydropyrazolo[1,5-a]pyrazine-3,5(4H)-dicarboxamide]
IC50 (CK1δ): 0.01 to 10 nM
IC50 (CK1ε): 0.01 to 10 nM

CC(C)(COC(F)(F)F)NC(=O)N1CCn2nc(-c3ccc(F)c(Cl)c3)c(C(N)=O)c2C1 [Compound 212, 2-(3-Chloro-4-fluorophenyl)-N^5-(2-methyl-1-(trifluoromethoxy)propan-2-yl)-6,7-dihydropyrazolo[1,5-a]pyrazine-3,5(4H)-dicarboxamide]
IC50 (CK1δ): 0.01 to 10 nM
IC50 (CK1ε): 0.01 to 10 nM

CC(C)(NC(=O)N1CCn2nc(-c3ccc(F)c(Cl)c3)c(C(N)=O)c2C1)C(=O)NC1CC1 [Compound 213, 2-(3-Chloro-4-fluorophenyl)-N^5-(1-(cyclopropylamino)-2-methyl-1-oxopropan-2-yl)-6,7-dihydropyrazolo[1,5-a]pyrazine-3,5(4H)-dicarboxamide]
IC50 (CK1δ): 10 to 100 nM
IC50 (CK1ε): 10 to 100 nM

CNC(=O)C(C)(C)NC(=O)N1CCn2nc(-c3ccc(F)c(Cl)c3)c(C(N)=O)c2C1 [Compound 214, 2-(3-Chloro-4-fluorophenyl)-N^5-(2-methyl-1-(methylamino)-1-oxopropan-2-yl)-6,7-dihydropyrazolo[1,5-a] pyrazine-3,5(4H)-dicarboxamide]
IC50 (CK1δ): 10 to 100 nM
IC50 (CK1ε): 10 to 100 nM

CC(C)(NC(=O)N1CCn2nc(-c3ccc(F)c(Cl)c3)c(C(N)=O)c2C1)C(=O)N1CCCC1 [Compound 215, 2-(3-Chloro-4-fluorophenyl)-N^5-(2-methyl-1-oxo-1-(pyrrolidin-1-yl)propan-2-yl)-6,7-dihydropyrazolo [1,5-a]pyrazine-3,5(4H)-dicarboxamide]
IC50 (CK1δ): 0.01 to 10 nM
IC50 (CK1ε): 10 to 100 nM

CC(C)NC(=O)C(C)(C)NC(=O)N1CCn2nc(-c3ccc(F)c(Cl)c3)c(C(N)=O)c2C1 [Compound 216, 2-(3-Chloro-4-fluorophenyl)-N^5-(1-(isopropylamino)-2-methyl-1-oxopropan-2-yl)-6,7-dihydropyrazolo[1,5-a] pyrazine-3,5(4H)-dicarboxamide]
IC50 (CK1δ): 10 to 100 nM
IC50 (CK1ε): 100 to 2000 nM

COCCNC(=O)C(C)(C)NC(=O)N1CCn2nc(-c3ccc(F)c(Cl)c3)c(C(N)=O)c2C1 [Compound 217, 2-(3-Chloro-4-fluorophenyl)-N^5-(1-((2-methoxyethyl)amino)-2-methyl-1-oxopropan-2-yl)-6,7-dihydropyrazolo[1,5-a] pyrazine-3,5(4H)-dicarboxamide]
IC50 (CK1δ): 10 to 100 nM
IC50 (CK1ε): 100 to 2000 nM

CN(C)C(=O)C(C)(C)NC(=O)N1CCn2nc(-c3ccc(F)c(Cl)c3)c(C(N)=O)c2C1 [Compound 218, 2-(3-Chloro-4-fluorophenyl)-N^5-(1-(dimethylamino)-2-methyl-1-oxopropan-2-yl)-6,7-dihydropyrazolo[1,5-a] pyrazine-3,5(4H)-dicarboxamide]
IC50 (CK1δ): 0.01 to 10 nM
IC50 (CK1ε): 10 to 100 nM

CC(C)(NC(=O)N1CCn2nc(-c3ccc(F)c(Cl)c3)c(C(N)=O)c2C1)C(N)=O [Compound 219, N^5-(1-Amino-2-methyl-1-oxopropan-2-yl)-2-(3-chloro-4-fluorophenyl)-6,7-dihydropyrazolo[1,5-a] pyrazine-3,5(4H)-dicarboxamide]
IC50 (CK1δ): 10 to 100 nM
IC50 (CK1ε): 10 to 100 nM

N#CCC1(NC(=O)N2CCn3nc(-c4ccc(F)c(Cl)c4)c(C(N)=O)c3C2)CCC1 [Compound 220, 2-(3-Chloro-4-fluorophenyl)-N^5-(1-(cyanomethyl)cyclobutyl)-6,7-dihydro pyrazolo[1,5-a]pyrazine-3,5(4H)-dicarboxamide]
IC50 (CK1δ): 0.01 to 10 nM
IC50 (CK1ε): 0.01 to 10 nM

N#CCC1(NC(=O)N2CCn3nc(-c4cccc(Cl)c4)c(C(N)=O)c3C2)CCC1 [Compound 221, 2-(3-Chlorophenyl)-N^5-(1-(cyanomethyl)cyclobutyl)-6,7-dihydropyrazolo[1,5-a] pyrazine-3,5(4H)-dicarboxamide]
IC50 (CK1δ): 0.01 to 10 nM
IC50 (CK1ε): 0.01 to 10 nM

N#CCC1(NC(=O)N2CCn3nc(-c4ccc(Cl)c(Cl)c4)c(C(N)=O)c3C2)CCC1 [Compound 222, N^5-(1-(Cyanomethyl)cyclobutyl)-2-(3,4-dichlorophenyl)-6,7-dihydropyrazolo[1,5-a] pyrazine-3,5(4H)-dicarboxamide]
IC50 (CK1δ): 0.01 to 10 nM
IC50 (CK1ε): 0.01 to 10 nM

NC(=O)c1c(-c2ccc(Cl)c(Cl)c2)nn2c1CN(C(=O)NC1(COC(F)F)CCC1)CC2 [Compound 224, 2-(3,4-Dichlorophenyl)-N^5-(1-((difluoromethoxy)methyl)cyclobutyl)-6,7-dihydropyrazolo[1,5-a] pyrazine-3,5(4H)-dicarboxamide]
IC50 (CK1δ): 0.01 to 10 nM
IC50 (CK1ε): 0.01 to 10 nM

NC(=O)c1c(-c2cccc(Cl)c2)nn2c1CN(C(=O)NC1(COC(F)F)CCC1)CC2 [Compound 225, 2-(3-Chlorophenyl)-N^5-(1-((difluoromethoxy)methyl)cyclobutyl)-6,7-dihydropyrazolo[1,5-a] pyrazine-3,5(4H)-dicarboxamide]
IC50 (CK1δ): 0.01 to 10 nM
IC50 (CK1ε): 0.01 to 10 nM

CC(C)(NC(=O)N1CCn2nc(-c3ccc(F)c(Cl)c3)c(C(N)=O)c2C1)C1CC(F)(F)C1 [Compound 226, 2-(3-Chloro-4-fluorophenyl)-N^5-(2-(3,3-difluorocyclobutyl)propan-2-yl)-6,7-dihydropyrazolo[1,5-a]pyrazine-3,5(4H)-dicarboxamide]
IC50 (CK1δ): 0.01 to 10 nM
IC50 (CK1ε): 0.01 to 10 nM

CC(C)(NC(=O)N1CCn2nc(-c3cccc(Cl)c3)c(C(N)=O)c2C1)C1CC(F)(F)C1 [Compound 227, 2-(3-Chlorophenyl)-N^5-(2-(3,3-difluorocyclobutyl)propan-2-yl)-6,7-dihydropyrazolo[1,5-a] pyrazine-3,5(4H)-dicarboxamide]
IC50 (CK1δ): 0.01 to 10 nM
IC50 (CK1ε): 0.01 to 10 nM

CC1(CNC(=O)N2CCn3nc(-c4ccc(F)c(Cl)c4)c(C(N)=O)c3C2)CC(F)(F)C1 [Compound 229, 2-(3-Chloro-4-fluorophenyl)-N^5-((3,3-difluoro-1-methylcyclobutyl)methyl)-6,7-dihydropyrazolo[1,5-a]pyrazine-3,5(4H)-dicarboxamide]
IC50 (CK1δ): 0.01 to 10 nM
IC50 (CK1ε): 0.01 to 10 nM

CC1(CNC(=O)N2CCn3nc(-c4cccc(Cl)c4)c(C(N)=O)c3C2)CC(F)(F)C1 [Compound 230, 2-(3-Chlorophenyl)-N^5-((3,3-difluoro-1-methylcyclobutyl)methyl)-6,7-dihydropyrazolo[1,5-a] pyrazine-3,5(4H)-dicarboxamide]
IC50 (CK1δ): 0.01 to 10 nM
IC50 (CK1ε): 0.01 to 10 nM
